Converted amounts (≈) assume the structure as drawn. Like-named read-outs stand apart in the source and are kept apart here.
Experiments:
Format in all cases: cell-based
C. albicans = assay: Candida albicans MIC / MFC
Bacillus thuringiensis = conditions: for MIC: Bacillus thuringiensis
[1] = test system: Burkholderia thailandensis Brett et al ATCC: 700388; assay: microbe, parasite or virus in culture
[2] = test system: Francisella tularensis subsp. Holarctica Strain LVSR NR-597; assay: microbe, parasite or virus in culture
Trichophyton rubrum = assay: MIC against Trichophyton rubrum; conditions: Trichophyton rubrum Castellani Sabouraud ATCC: 28188; read-out: MIC
Candida glabrata = Candida glabrata MIC / MFC; conditions: Nakaseomyces glabratus
Bacillus subtilis = Bacillus subtilis MIC / MBC; conditions: for MBC: Bacillus subtilis NRRL: B-571, minimum bactericidal concentration; for MIC: Bacillus subtilis
[3] = Bacillus thuringiensis Berliner ATCC: 10792
[4] = Bacillus thuringiensis Berliner ATCC: 10792, read-out: MIC
[5] = Candida glabrata #584 (Table 2), minimum fungicidal concentration, read-out: MFC
[6] = Candida glabrata #584 (Table 2), read-out: MIC
[7] = Bacillus subtilis (Ehrenberg 1835) Cohn 1872 NRRL: B-571, read-out: MIC
[8] = C. albicans strain #761, read-out: MIC
[9] = C. albicans strain #762, read-out: MIC
[10] = C. glabrata strain #325, read-out: MIC
[11] = C. glabrata strain #584 (Table 7), read-out: MIC
[12] = strain B-1985, read-out: Bacillus subtilis MIC
[13] = strain B-3665, read-out: Bacillus subtilis MIC
[14] = strain B-14322, read-out: Bacillus subtilis MIC
[15] = strain B-41090, read-out: Bacillus subtilis MIC
[16] = strain B-41581, read-out: Bacillus subtilis MIC
[17] = strain BD-594, read-out: Bacillus subtilis MIC
[18] = C. albicans strain #761, read-out: MFC
[19] = C. albicans strain #762, read-out: MFC

Row | SMILES | MBC (Bacillus thuringiensis; [3]) | MIC (Bacillus thuringiensis; [4]) | MIC [1] | MIC [2] | MIC (Trichophyton rubrum) | MIC (Candida glabrata; [6]) | MBC (Bacillus subtilis) | MIC (Bacillus subtilis; [7]) | other results
1 | Fc1ccc2c(Sc3ccc(Br)cc3)c[nH]c2c1 [Compound 172A, 3-((4-bromophenyl)thio)-6-fluoro-1H-indole] | 1.56 µg/mL (≈ 4.84 µM) | 1.56 µg/mL (≈ 4.84 µM) | > 50 µg/mL | 0.78 µg/mL (≈ 2.42 µM) | 9.52 µg/mL (≈ 29.5 µM) | 1.56 µg/mL (≈ 4.84 µM) | > 50 µg/mL | 1.56 µg/mL (≈ 4.84 µM) | MFC (C. albicans; C. albicans strain #761): 12.5 µg/mL (≈ 38.8 µM); MIC (C. albicans; C. albicans strain #761): 3.13 µg/mL (≈ 9.71 µM); MFC (C. albicans; C. albicans strain #762): 6.25 µg/mL (≈ 19.4 µM); MIC (C. albicans; C. albicans strain #762): 1.56 µg/mL (≈ 4.84 µM); MFC (Candida glabrata; C. glabrata strain #325): 12.5 µg/mL (≈ 38.8 µM); MIC (Candida glabrata; C. glabrata strain #325): 6.25 µg/mL (≈ 19.4 µM); MFC (Candida glabrata; [5]): 3.13 µg/mL (≈ 9.71 µM)
2 | [O-][S+](c1ccc(Br)cc1)c1c[nH]c2ccc(Br)cc12 (stereo not shown) [Compound 172I, 5-bromo-3-((4-bromophenyl)sulfinyl)-1H-indole] | 40 µg/mL (≈ 100 µM) | 10 µg/mL (≈ 25.1 µM) | – | 20 µg/mL (≈ 50.1 µM) | 9.92 µg/mL (≈ 24.9 µM) | > 40 µg/mL | 10 µg/mL (≈ 25.1 µM) | 10 µg/mL (≈ 25.1 µM) | –
3 | Brc1ccc(Sc2c[nH]c3cc(Br)c(Br)cc23)cc1 [Compound 174AB, 5,6-dibromo-3-((4-bromophenyl)thio)-1H-indole] | 8 µg/mL (≈ 17.3 µM) | 2 µg/mL (≈ 4.33 µM) | > 50 µg/mL | 4 µg/mL (≈ 8.66 µM) | – | 3.13 µg/mL (≈ 6.77 µM) | 16 µg/mL (≈ 34.6 µM) | 4 µg/mL (≈ 8.66 µM) | MIC (C. albicans; [8]): > 50 µg/mL; MIC (C. albicans; [9]): > 50 µg/mL; MIC (Bacillus thuringiensis; strain B-1596): 4 µg/mL (≈ 8.66 µM); MIC (Candida glabrata; [10]): > 50 µg/mL; MIC (Candida glabrata; [11]): 3.13 µg/mL (≈ 6.77 µM); MIC (Bacillus subtilis; [12]): 4 µg/mL (≈ 8.66 µM); MIC (Bacillus subtilis; [13]): 2 µg/mL (≈ 4.33 µM); MIC (Bacillus subtilis; [14]): 2 µg/mL (≈ 4.33 µM); MIC (Bacillus subtilis; [15]): 4 µg/mL (≈ 8.66 µM); MIC (Bacillus subtilis; [16]): 2 µg/mL (≈ 4.33 µM); MIC (Bacillus subtilis; [17]): 4 µg/mL (≈ 8.66 µM)
4 | Brc1ccc(Sc2[nH]c3ccccc3c2Sc2ccc(Br)cc2)cc1 [Compound 156P, 2,3-bis((4-bromophenyl)thio)-1H-indole] | > 50 µg/mL | 3.13 µg/mL (≈ 6.37 µM) | – | > 50 µg/mL | 6.11 µg/mL (≈ 12.4 µM) | > 50 µg/mL | > 50 µg/mL | 12.5 µg/mL (≈ 25.4 µM) | –
5 | Brc1ccc(Sc2c[nH]c3cc(Br)cc(Br)c23)cc1 [Compound 174AE, 4,6-dibromo-3-((4-bromophenyl)thio)-1H-indole] | > 50 µg/mL | 2 µg/mL (≈ 4.33 µM) | > 50 µg/mL | 4 µg/mL (≈ 8.66 µM) | – | 25 µg/mL (≈ 54.1 µM) | 4 µg/mL (≈ 8.66 µM) | 2 µg/mL (≈ 4.33 µM) | MFC (C. albicans; [18]): > 50 µg/mL; MIC (C. albicans; [8]): 50 µg/mL (≈ 108 µM); MFC (C. albicans; [19]): 25 µg/mL (≈ 54.1 µM); MIC (C. albicans; [9]): 6.25 µg/mL (≈ 13.5 µM); MFC (Candida glabrata; C. glabrata strain #325, read-out: MFC): > 50 µg/mL; MIC (Candida glabrata; [10]): 12.5 µg/mL (≈ 27.1 µM); MIC (Candida glabrata; [11]): 25 µg/mL (≈ 54.1 µM)
6 | FC(F)(F)c1ccc2[nH]cc(Sc3ccccc3Br)c2c1 [Compound 174AX, 3-((2-bromophenyl)thio)-5-(trifluoromethyl)-1H-indole] | 2 µg/mL (≈ 5.37 µM) | 1 µg/mL (≈ 2.69 µM) | – | 1 µg/mL (≈ 2.69 µM) | – | 12.5 µg/mL (≈ 33.6 µM) | 8 µg/mL (≈ 21.5 µM) | 0.5 µg/mL (≈ 1.34 µM) | MFC (C. albicans; [18]): 50 µg/mL (≈ 134 µM); MIC (C. albicans; [8]): 12.5 µg/mL (≈ 33.6 µM); MFC (C. albicans; [19]): 12.5 µg/mL (≈ 33.6 µM); MIC (C. albicans; [9]): 6.25 µg/mL (≈ 16.8 µM); MIC (Candida glabrata; [10]): > 50 µg/mL; MIC (Candida glabrata; [11]): 12.5 µg/mL (≈ 33.6 µM)
7 | Brc1ccc(Sc2c[nH]c3ccc(Br)cc23)cc1 [Compound 172D, 5-bromo-3-((4-bromophenyl)thio)-1H-indole] | 10 µg/mL (≈ 26.1 µM) | 1.25 µg/mL (≈ 3.26 µM) | 100 µg/mL (≈ 261 µM) | 1.25 µg/mL (≈ 3.26 µM) | 1.18 µg/mL (≈ 3.08 µM) | > 50 µg/mL | 5 µg/mL (≈ 13.1 µM) | 1.25 µg/mL (≈ 3.26 µM) | MIC (Bacillus thuringiensis; ATCC10792, […]): 1.25 µg/mL (≈ 3.26 µM); MIC (Bacillus thuringiensis; strain B-1596): 2.5 µg/mL (≈ 6.53 µM); MBC [1]: > 150 µg/mL; MIC (Bacillus subtilis; strain B-571 (Table 4), read-out: Bacillus subtilis MIC): 1.25 µg/mL (≈ 3.26 µM); MIC (Bacillus subtilis; [12]): 1.25 µg/mL (≈ 3.26 µM); MIC (Bacillus subtilis; [13]): 1.25 µg/mL (≈ 3.26 µM); MIC (Bacillus subtilis; [14]): 1.25 µg/mL (≈ 3.26 µM); MIC (Bacillus subtilis; [15]): 2.5 µg/mL (≈ 6.53 µM); MIC (Bacillus subtilis; [16]): 1.25 µg/mL (≈ 3.26 µM); MIC (Bacillus subtilis; [17]): 2.5 µg/mL (≈ 6.53 µM)
8 | Brc1ccc2[nH]cc(Sc3ccc(-c4ccccc4)cc3)c2c1 [Compound 174R, 3-([1,1′-biphenyl]-4-ylthio)-5-bromo-1H-indole] | – | > 50 µg/mL | > 50 µg/mL | – | > 9.5 µg/mL | > 50 µg/mL | – | > 50 µg/mL | –
9 | Clc1ccc(Sc2c[nH]c3ccc(Br)cc23)cc1Cl [Compound 174W, 5-bromo-3-((3,4-dichlorophenyl)thio)-1H-indole] | 5 µg/mL (≈ 13.4 µM) | 1.25 µg/mL (≈ 3.35 µM) | > 50 µg/mL | – | 1.16 µg/mL (≈ 3.11 µM) | 25 µg/mL (≈ 67 µM) | > 10 µg/mL | 1.25 µg/mL (≈ 3.35 µM) | MIC (C. albicans; [8]): > 50 µg/mL; MIC (C. albicans; [9]): > 50 µg/mL; MIC (Candida glabrata; [10]): > 50 µg/mL; MIC (Candida glabrata; [11]): 25 µg/mL (≈ 67 µM)
10 | Brc1ccc(Sc2c[nH]c3c(Br)cccc23)cc1 [Compound 174H, 7-bromo-3-((4-bromophenyl)thio)-1H-indole] | 12.5 µg/mL (≈ 32.6 µM) | 6.25 µg/mL (≈ 16.3 µM) | > 50 µg/mL | 3.13 µg/mL (≈ 8.17 µM) | 2.38 µg/mL (≈ 6.21 µM) | 12.5 µg/mL (≈ 32.6 µM) | > 50 µg/mL | 3.13 µg/mL (≈ 8.17 µM) | –
11 | O=S(=O)(c1ccc(Br)cc1)c1c[nH]c2ccc(Br)cc12 [Compound 172J, 5-bromo-3-((4-bromophenyl)sulfonyl)-1H-indole] | 3.13 µg/mL (≈ 7.54 µM) | 1.56 µg/mL (≈ 3.76 µM) | > 50 µg/mL | 6.25 µg/mL (≈ 15.1 µM) | 10.3 µg/mL (≈ 24.8 µM) | > 50 µg/mL | 6.25 µg/mL (≈ 15.1 µM) | 3.13 µg/mL (≈ 7.54 µM) | –
12 | COc1ccc(Sc2c[nH]c3ccccc23)cc1 [Compound 156O, 3-((4-methoxyphenyl)thio)-1H-indole] | > 50 µg/mL | 6.25 µg/mL (≈ 24.5 µM) | – | 3.13 µg/mL (≈ 12.3 µM) | 3.19 µg/mL (≈ 12.5 µM) | 50 µg/mL (≈ 196 µM) | 12.5 µg/mL (≈ 49 µM) | 6.25 µg/mL (≈ 24.5 µM) | –
13 | Cc1c(Sc2ccc(Br)cc2)[nH]c2ccccc12 [Compound 172B, 2-((4-bromophenyl)thio)-3-methyl-1H-indole] | 25 µg/mL (≈ 78.6 µM) | 6.25 µg/mL (≈ 19.6 µM) | – | 3.13 µg/mL (≈ 9.84 µM) | 15.6 µg/mL (≈ 49 µM) | 50 µg/mL (≈ 157 µM) | 25 µg/mL (≈ 78.6 µM) | 6.25 µg/mL (≈ 19.6 µM) | –
14 | Brc1ccc2[nH]cc(Sc3cccc4ccccc34)c2c1 [Compound 174G, 5-bromo-3-(naphthalen-1-ylthio)-1H-indole] | 3.13 µg/mL (≈ 8.84 µM) | 1.56 µg/mL (≈ 4.4 µM) | > 50 µg/mL | – | 2.21 µg/mL (≈ 6.24 µM) | > 50 µg/mL | 50 µg/mL (≈ 141 µM) | 1.56 µg/mL (≈ 4.4 µM) | –
15 | Brc1ccc(Sc2c[nH]c3ccccc23)cc1 [Compound 174U, 3-((4-bromophenyl)thio)-1H-indole] | 12.5 µg/mL (≈ 41.1 µM) | 12.5 µg/mL (≈ 41.1 µM) | > 50 µg/mL | 1.56 µg/mL (≈ 5.13 µM) | 0.95 µg/mL (≈ 3.12 µM) | > 50 µg/mL | > 10 µg/mL | > 50 µg/mL | –
16 | COc1ccc(Sc2c[nH]c3ccc(Br)cc23)cc1 [Compound 174Q, 5-bromo-3-((4-methoxyphenyl)thio)-1H-indole] | 12.5 µg/mL (≈ 37.4 µM) | 1.56 µg/mL (≈ 4.67 µM) | > 50 µg/mL | – | 2.08 µg/mL (≈ 6.22 µM) | 3.13 µg/mL (≈ 9.36 µM) | > 50 µg/mL | 1.56 µg/mL (≈ 4.67 µM) | MFC (Candida glabrata; [5]): > 50 µg/mL
